Where two headings read alike, the source gives them in different places.
Legend:
system LAT1 transporter = settings: cited from earlier work; for Ki: read-out: Ki for the system L transporter
[1] = cited from earlier work
[2] = cited from earlier work; remark: listed apart in the source
[3] = biological target: system LAT1 transporter of the blood–brain barrier (Rattus norvegicus, UniProt Q63016); test: in situ rat brain perfusion: inhibition of L-[14C]-leucine uptake into rat brain; settings: in vivo
[4] = read-out: Km for system LAT1 transporter

system LAT1 transporter of the blood–brain barrier, sequence (Q63016 whole entry, the tested form may be a part): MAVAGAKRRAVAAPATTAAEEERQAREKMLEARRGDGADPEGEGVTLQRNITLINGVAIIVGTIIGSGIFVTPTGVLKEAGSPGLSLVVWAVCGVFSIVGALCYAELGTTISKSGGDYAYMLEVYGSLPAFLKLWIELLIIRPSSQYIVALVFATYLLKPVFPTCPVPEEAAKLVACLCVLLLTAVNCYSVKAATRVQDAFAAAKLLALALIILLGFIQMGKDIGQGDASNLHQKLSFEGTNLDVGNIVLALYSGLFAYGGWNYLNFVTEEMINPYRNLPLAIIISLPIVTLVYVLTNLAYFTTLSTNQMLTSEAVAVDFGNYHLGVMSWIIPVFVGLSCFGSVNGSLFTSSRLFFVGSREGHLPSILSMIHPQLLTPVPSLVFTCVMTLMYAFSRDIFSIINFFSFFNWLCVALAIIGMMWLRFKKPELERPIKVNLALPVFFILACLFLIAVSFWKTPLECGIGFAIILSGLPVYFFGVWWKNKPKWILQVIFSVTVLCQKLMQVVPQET
system LAT1 transporter of the blood–brain barrier, sequence (Q794F9 whole entry partner, the tested form may be a part): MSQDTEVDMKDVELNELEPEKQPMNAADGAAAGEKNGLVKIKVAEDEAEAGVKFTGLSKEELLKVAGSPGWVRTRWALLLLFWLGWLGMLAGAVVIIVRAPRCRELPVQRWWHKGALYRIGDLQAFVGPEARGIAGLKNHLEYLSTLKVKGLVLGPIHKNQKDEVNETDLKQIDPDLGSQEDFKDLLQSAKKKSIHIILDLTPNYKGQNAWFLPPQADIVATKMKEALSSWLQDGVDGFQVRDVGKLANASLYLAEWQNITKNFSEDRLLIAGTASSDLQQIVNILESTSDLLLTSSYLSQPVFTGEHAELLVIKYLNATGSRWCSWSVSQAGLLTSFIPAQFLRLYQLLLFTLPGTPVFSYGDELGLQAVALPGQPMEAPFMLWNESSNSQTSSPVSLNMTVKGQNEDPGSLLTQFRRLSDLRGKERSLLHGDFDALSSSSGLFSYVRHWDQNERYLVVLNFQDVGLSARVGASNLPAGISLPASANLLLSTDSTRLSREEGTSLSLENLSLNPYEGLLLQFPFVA

Compound	Km (system LAT1 transporter; [4])	Ki (system LAT1 transporter)	times lower affinity for the system LAT1 transporter than 5c [3]	other results
NC1(C(=O)O)CCc2ccccc2C1 (racemic) [compound 3, DL-2-amino-1,2,3,4,-tetrahydronaphthoic acid, reference compound]	7.1 µM	–	–	–
NC1(C(=O)O)CCc2ccc(N(CCCl)CCCl)cc2C1 (centres unmarked) [5c]	0.19 µM	~0.2 µM	–	myelosuppressive activity compared to melphalan [1]: reduced; Vmax of uptake into brain by blood–brain barrier system LAT1 transporter (system LAT1 transporter): 0.26 nmol/min/g; in vitro antitumor activity compared to melphalan [2]: enhanced
N[C@@H](Cc1ccc(N(CCCl)CCCl)cc1)C(=O)O [compound 2, Melphalan, reference compound]	–	–	–	Km (system LAT1 transporter; read-out: Km for system LAT1, estimated): 90 to 150 µM
NC1(C(=O)O)CC2CCC1C2 (centres unmarked) [compound 4, reference compound]	–	–	–	affinity for the system LAT1 transporter (system LAT1 transporter; in vivo): good affinity
NC1(C(=O)O)CCc2c(cccc2N(CCCl)CCCl)C1 (centres unmarked) [5a]	–	~25 µM	100 times	–
NC1(C(=O)O)CC2CC1c1cc(N(CCCl)CCCl)ccc12 (mixture of isomers) [compound 7, (±)-2-endo-amino-bis(2-chloroethyl)-7′-aminobenzobicyclo[2.2.1]heptane-2-exo-carboxylic acid]	–	–	25 times	–

From article PMC3725995 (Bioorganic & medicinal chemistry letters, 2010)
